Measured values: paper PMC6720600, “Discovery of Novel TASK-3 Channel Blockers Using a Pharmacophore-Based Virtual Screening” (International Journal of Molecular Sciences, 2019)

How the values were obtained:
Format in all cases: cell-based
TASK-1 [1] = target: T1, TASK-1 (Homo sapiens, UniProt O14649); assay: dose-response of TASK-1 channel inhibition (electrophysiology; expression details for TASK-1 not given)
T1 construct: gene KCNK3

TASK-3 = target: T2, TASK-3 (Homo sapiens, UniProt Q9NPC2); assay: whole-cell patch clamp, HEK-293 cells transfected with TASK-3
T2 construct: gene KCNK9

TASK-1 [2] = target: T1, TASK-1; assay: dose-response curve on human TASK-1 (electrophysiology; value not given)

T1 sequence (O14649 whole entry): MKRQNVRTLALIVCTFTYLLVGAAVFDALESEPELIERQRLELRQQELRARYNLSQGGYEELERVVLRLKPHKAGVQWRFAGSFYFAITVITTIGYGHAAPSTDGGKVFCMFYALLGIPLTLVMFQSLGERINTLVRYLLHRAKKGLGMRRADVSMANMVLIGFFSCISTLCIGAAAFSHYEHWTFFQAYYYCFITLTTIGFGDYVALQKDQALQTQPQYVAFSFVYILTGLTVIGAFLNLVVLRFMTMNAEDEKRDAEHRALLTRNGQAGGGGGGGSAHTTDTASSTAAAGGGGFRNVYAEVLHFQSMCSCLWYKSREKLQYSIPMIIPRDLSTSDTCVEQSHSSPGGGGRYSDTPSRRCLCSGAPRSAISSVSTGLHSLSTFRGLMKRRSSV
T2 sequence (Q9NPC2 whole entry): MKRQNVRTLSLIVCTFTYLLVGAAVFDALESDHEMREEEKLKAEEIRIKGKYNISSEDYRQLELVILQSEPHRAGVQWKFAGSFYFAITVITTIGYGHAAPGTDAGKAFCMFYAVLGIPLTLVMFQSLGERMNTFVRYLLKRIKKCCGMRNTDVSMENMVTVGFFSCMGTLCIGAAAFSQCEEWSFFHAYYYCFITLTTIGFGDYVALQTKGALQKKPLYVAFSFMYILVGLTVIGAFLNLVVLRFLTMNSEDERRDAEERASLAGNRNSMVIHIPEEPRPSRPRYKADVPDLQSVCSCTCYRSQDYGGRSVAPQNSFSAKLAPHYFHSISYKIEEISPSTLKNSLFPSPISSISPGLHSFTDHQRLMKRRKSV

| Compound | IC50 (TASK-1 [1]) | IC50 (TASK-3) | IC50 (TASK-1 [2]) |
| --- | --- | --- | --- |
| CC(C(=O)Nc1ccc(O)cc1F)c1cc2cccc(NC(=O)c3ccc(O)cc3)c2o1 (stereo not shown) [DR16.1] | 21.2 ± 5.5 µM | 14.2 ± 3.4 µM | – |
| CC(C(=O)Nc1ccc(O)cc1F)c1cc2ccccc2o1 (stereo not shown) [DR16] | – | 56.8 ± 3.9 µM | Lead ligand DR16 blocks human TASK channels. |
